The values that follow come from ChEMBL document CHEMBL1132917, “Discovery of a potent, non-triketone type inhibitor of 4-hydroxyphenylpyruvate dioxygenase” (Bioorg Med Chem Lett, 2000).

The target of this assay is 4-hydroxyphenylpyruvate dioxygenase (Sus scrofa, UniProt Q02110). The assay is described as follows: In vitro inhibitory activity against HPPD(4-hydroxyphenylpyruvate Dioxygenase) from pig liver using enol borate assay method.

Molecules are shown by their SMILES.

Sequence of 4-hydroxyphenylpyruvate dioxygenase (Q02110 whole entry): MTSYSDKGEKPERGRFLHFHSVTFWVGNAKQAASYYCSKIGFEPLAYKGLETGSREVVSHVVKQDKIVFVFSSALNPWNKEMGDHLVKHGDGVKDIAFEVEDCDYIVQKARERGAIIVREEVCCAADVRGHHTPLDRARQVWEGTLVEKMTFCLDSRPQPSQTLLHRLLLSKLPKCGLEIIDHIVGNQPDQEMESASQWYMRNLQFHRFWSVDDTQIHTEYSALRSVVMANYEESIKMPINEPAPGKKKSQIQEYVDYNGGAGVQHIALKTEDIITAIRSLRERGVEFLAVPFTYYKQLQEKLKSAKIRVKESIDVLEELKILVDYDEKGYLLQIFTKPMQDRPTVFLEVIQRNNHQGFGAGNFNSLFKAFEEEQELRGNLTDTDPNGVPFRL

The term IC50 denotes the point on the concentration scale where inhibition reaches its midpoint. A high value points to a need for much substance. As for `O=C1C=C(OC(=O)C2CC2)CCC1`, the IC50 stood at 0.03 µM.

As to `CC(=O)OC1=CC(=O)CCC1`, the half-inhibitory concentration (IC50) came to 3.62 µM.

As for `CC(C)C(=O)OC1=CC(=O)CCC1`, the IC50 worked out at 4.16 µM.
